What was measured:
[1] = Dissolution testing of MK-7 nanosuspension in FeSSIF (study 1, 500 mL media); assay type: physicochemical; settings: FeSSIF pH 5, 37 °C, 0.01 mg/mL drug load
Description: MK-7 (menaquinone-7, API) was suspended in an aqueous vehicle containing wetting agent sodium deoxycholat. The API concentration was 4% and the wetting agent concentration was 0.4% w/w. The API particles were milled to a particle size of 155 nm using zirconium milling beads and high shear Beadbeater mixing. The dissolution of the nanosuspension was tested at a concentration of 0.01 mg/mL, in triplicate, in pH 5 Fed State Simulated Intestinal Fluid (FeSSIF).
1. Clean dissolution system with DI water. Prepare FeSSIF: 2. Fill three (3) vessels with 500 mL of FeSSIF media and heat to 37° C. 3. Set up the following dissolution conditions:
4. Vortex suspension x for approximately one minute so that it is uniform. Weigh three (3) aliquots of 0.15 g of the 4% nanosuspension into a tared syringe to give a target 100% dissolution concentration of 0.01 mg/mL. Record weight. 5. Add weighed suspension directly to each vessel. 6. Start at Timer. 7. After five minutes, manually pull up 3 mL from each dissolution vessel in a syringe. 8. Attach a 0.2 μm filter to the syringe. 9. Transfer 2 mL of the dissolution sample back into the vessel. 10. Transfer the final 1 mL of sample to an amber HPLC vial and crimp seal. 11. Repeat Steps #8-11 at 10, 15, 30, 45 and 60 mins. 12. After the 60-minute time-point, mix each vessel for 5 minutes with a high shear mixer. 13. Repeat Step #8-11 and label this sample as ‘infinity’. 14. Run samples on HPLC 10 minutes HPLC method with replicate HPLC standard solutions.

[2] = Dissolution testing of MK-7 nanosuspension in FeSSIF (summary study 2); assay type: physicochemical; settings: FeSSIF pH 5, 37 °C, 0.0104 mg/mL
Description: MK-7 (menaquinone-7, API) was suspended in an aqueous vehicle containing wetting agent, sodium deoxycholate. The API concentration was 4% and the wetting agent concentration was 0.4% w/w. The API particles were milled to a particle size of 156 nm by use of zirconium milling beads and high shear Beadbeater mixing. The dissolution of the nanosuspension was tested at a concentration of 0.01 mg/mL, in triplicate, in pH 5 FeSSIF.
Clean dissolution system with DI water. Fill 3× vessels with 500 mL of FeSSIF media and heat to 37° C. Set up the following dissolution conditions:
Vortex suspension×1 minute so that it is uniform. Weigh 3×0.15 g portions of nanosuspension into a tared syringe to give a target 100% dissolution concentration of 0.01 mg/mL. Record weight. Add weighed suspension directly to each vessel. Start at Timer.
At 5 mins, manually pull up 3 mL from each vessel in a syringe. Attach a 0.2 μm filter to the syringe. Transfer 2 mL of the aliquot back into the vessel. Transfer the final 1 mL of aliquot to an HPLC vial and crimp seal. Repeat Steps #8-11 at 10, 15, 30, 45 and 60 mins. After the 60-minute time-point, mix each vessel for 5 minutes with a high shear mixer. Repeat Step #8-11 and label this sample as ‘infinity’.
Run samples on HPLC 10-minute HPLC method with replicate HPLC STDs.

PC12 cells = settings: cited from earlier work
caspase-3 = settings: concentration of 10 mcmol/L; cited from earlier work
[3] = Infinity (after 5 min high shear mixing)

| Compound | % Dissolution (Avg of n = 3) [1, 3] [%] | % Dissolution (Avg of n = 3) ([1]; timepoint 0 min) [%] | % Dissolution (Avg of n = 3) ([1]; timepoint 10 min) [%] | % Dissolution (Avg of n = 3) ([1]; timepoint 15 min) [%] | % Dissolution (Avg of n = 3) ([1]; timepoint 30 min) [%] | % Dissolution (Avg of n = 3) ([1]; timepoint 45 min) [%] | % Dissolution (Avg of n = 3) ([1]; timepoint 60 min) [%] | % Dissolution (Avg of n = 3) [2, 3] [%] | % Dissolution (Avg of n = 3) ([2]; timepoint 0 min) [%] | % Dissolution (Avg of n = 3) ([2]; timepoint 5 min) [%] | % Dissolution (Avg of n = 3) ([2]; timepoint 10 min) [%] | % Dissolution (Avg of n = 3) ([2]; timepoint 15 min) [%] | % Dissolution (Avg of n = 3) ([2]; timepoint 30 min) [%] | % Dissolution (Avg of n = 3) ([2]; timepoint 45 min) [%] | % Dissolution (Avg of n = 3) ([2]; timepoint 60 min) [%] | neuronal death resulting from Aβ(1-42) (PC12 cells; PC12 cells) | apoptosis after exposure to H2O2 or Aβ(1-42) (PC12 cells; cells pretreated with vitamin K2) | decrease of caspase-3 activity (caspase-3) [fold] |
| --- | --- | --- | --- | --- | --- | --- | --- | --- | --- | --- | --- | --- | --- | --- | --- | --- | --- | --- |
| CC(C)=CCC/C(C)=C/CC/C(C)=C/CC/C(C)=C/CC/C(C)=C/CC/C(C)=C/CC/C(C)=C/CC1=C(C)C(=O)c2ccccc2C1=O [API, menaquinone-7] | 97.0 | 0 | 96.7 | 97.3 | 97.8 | 97.7 | 95.7 | 10.1 | 0.0 | 4.1 | 9.1 | 8.3 | 16.6 | 7.9 | 5.3 |  |  |  |
| vitamin K2 |  |  |  |  |  |  |  |  |  |  |  |  |  |  |  | prevented neuronal death | significantly less apoptosis | 2.5 |

From patent publication US12383514B2, “Nano-particles of menaquinone and methods of treatment” (Epizon, Inc., priority 2023, dated 2025)
